# Where two headings read alike, the source gives them in different places.
# Tested on: Mycosphaerella graminicola; Anamorph: Septoria tritici; Bayer Code SEPTTR
# Assay: Leaf blotch of wheat, foliar fungicide treatment, one day protectant (1DP) or three day curative (3DC)
# Format: in vivo, Septoria tritici on wheat plants (variety Yuma)
# Settings: Zymoseptoria tritici, percent control rating; for pest or weed control at 100 ppm: read-out: SEPTTR 3DC 100 ppm
# [1] = 24 h, one day protectant (1DP), 25 ppm (first 1DP column), read-out: SETTTR 1DP 25 ppm
# [2] = 24 h, one day protectant (1DP), 25 ppm as printed (second 1DP column), read-out: SETTTR 1DP 25 ppm
# [3] = 72 h, three day curative (3DC), 25 ppm, read-out: SEPTTR 3DC 25 ppm
SMILES,pest or weed control at 25 ppm [1],pest or weed control at 25 ppm [2],pest or weed control at 25 ppm [3],"pest or weed control at 100 ppm (72 h, three day curative (3DC))"
Fc1ccc(COc2ncc(F)c(/N=N/c3ccccc3Cl)n2)cc1 [Compound 1014],0 to 25%,0 to 25%,0 to 25%,76 to 100%
COc1nn(C)c(C(F)(F)F)c1S(=O)(=O)Nc1nc(OCc2ccc(C)cc2)ncc1F [Compound 1015],0 to 25%,0 to 25%,26 to 50%,76 to 100%
COc1ccnc(Cl)c1S(=O)(=O)Nc1nc(OCc2ccc(C)cc2)ncc1F [Compound 1016],0 to 25%,0 to 25%,51 to 75%,51 to 75%
COc1ccc(/C(C)=N/Nc2nc(OC)ncc2F)cc1 [Compound 1017],0 to 25%,26 to 50%,0 to 25%,51 to 75%
CCC(C)/C(C)=N/Nc1nc(OC)ncc1F (stereo not shown) [Compound 1018],0 to 25%,0 to 25%,0 to 25%,0 to 25%
COc1ncc(F)c(N/N=C(\C)c2cc3ccccc3o2)n1 [Compound 1019],26 to 50%,26 to 50%,0 to 25%,0 to 25%
COc1ncc(F)c(N/N=C/c2cc(C)nn2C)n1 [Compound 1020],0 to 25%,0 to 25%,26 to 50%,0 to 25%
CCC(/C=N/Nc1nc(OC)ncc1F)CC [Compound 1021],0 to 25%,26 to 50%,26 to 50%,26 to 50%
COc1ncc(F)c(N/N=C/C2CC2)n1 [Compound 1022],0 to 25%,0 to 25%,0 to 25%,26 to 50%
COc1ncc(F)c(N/N=C/c2ccco2)n1 [Compound 1023],0 to 25%,0 to 25%,0 to 25%,0 to 25%
COc1ncc(F)c(N/N=C/c2cccs2)n1 [Compound 1024],0 to 25%,0 to 25%,0 to 25%,0 to 25%
COc1ncc(F)c(N/N=C(\C)c2sc(C)nc2C)n1 [Compound 1025],0 to 25%,0 to 25%,26 to 50%,0 to 25%
COc1ncc(F)c(N/N=C(\C)c2ccc(F)cc2)n1 [Compound 1026],26 to 50%,26 to 50%,0 to 25%,26 to 50%
Cc1ccc(COc2ncc(F)c(NS(=O)(=O)c3c(Br)cnn3C)n2)cc1 [Compound 1027],0 to 25%,0 to 25%,0 to 25%,0 to 25%
Fc1ccccc1NNc1nc(OCc2ccccc2)ncc1F [Compound 1028],0 to 25%,0 to 25%,0 to 25%,0 to 25%
Fc1cnc(OCc2ccccc2)nc1NNc1cccc(C(F)(F)F)c1 [Compound 1029],0 to 25%,0 to 25%,0 to 25%,0 to 25%
Cc1ccc(COc2ncc(F)c(NNc3ccc(Br)cc3)n2)cc1 [Compound 1030],0 to 25%,0 to 25%,0 to 25%,0 to 25%
COc1cccc(COc2ncc(F)c(NNc3cc(C)nc(C)n3)n2)c1 [Compound 1032],26 to 50%,26 to 50%,0 to 25%,0 to 25%
C/C=C(C)/C=N/Nc1nc(OC)ncc1F [Compound 1033],0 to 25%,0 to 25%,0 to 25%,26 to 50%
COc1ncc(F)c(NNc2ccccc2Cl)n1 [Compound 1034],0 to 25%,0 to 25%,0 to 25%,0 to 25%
Fc1cnc(OCc2ccccc2)nc1NNc1ccc(Br)cc1 [Compound 1035],0 to 25%,0 to 25%,0 to 25%,0 to 25%
Cc1ccc(C)c(NNc2nc(OCc3ccccc3)ncc2F)c1 [Compound 1036],0 to 25%,0 to 25%,0 to 25%,0 to 25%
